# Experimental data taken from ChEMBL document CHEMBL3507680, “University of Dundee, Gates Library screen for HepG2 cell viability”.
# Assay: Human HepG2 cell viability assay in 384 well format
# Format: toxicity, cell-based
# Parameters: dose 125 nL, time 70.5 hour; cytotoxicity at 70.5 h: concentration not given beside the values
# Details: HepG2 cells, read-out: Inhibition
row,SMILES,cytotoxicity at 70.5 h [%]
1,CCOc1ccc(NC(=O)c2cc3c([nH]c2=O)CCC3)cc1,-13.3
2,Cc1cnc(C(NC(=O)NCc2nc(C3CC3)no2)C2CC2)s1 (configuration not stated),-1.45
3,Cc1ccc(-c2cc(CNC(=O)N3CCOC(C)C3)on2)cc1 (configuration not stated),-6.72
4,O=C(NC1CCCN(CCc2ccccc2)C1)c1cnccn1 (configuration not stated),-3.22
5,O=C(CO)N1C[C@H]2CC[C@@H]1CN(C1Cc3ccccc3C1)C2,-8.88
6,O=C(c1cn(-c2cc(N3CCSCC3)ncn2)cn1)N1CCSCC1,-1.64
7,CCn1c(Cn2cccn2)nnc1C1CCN(Cc2ccc(C)o2)CC1,19.3
8,Cc1ccccc1CN1CCN(CC(=O)Nc2cccnc2)CC1,5.17
9,CC(C)c1noc(-c2cccc(OCC(N)=O)c2)n1,-5.07
10,CCc1ccc(CN(C)C(=O)c2cnc3c(c2)nc(N)n3CC)nc1,-8.01
11,CCNc1nc(-c2cccnc2)c(-c2ccnc(N3CCOCC3)n2)s1,-10.7
12,O=C1[C@H]2CN(Cc3ccoc3)C[C@H]2CN1CCN1CCCC1,-12.5
13,CCN1CCO[C@@H]2CN(S(=O)(=O)c3cccs3)CC[C@@H]2C1,-6.19
14,O=C(NCc1ccnc(-n2cccn2)c1)C1CC(=O)N(CC2CC2)C1 (configuration not stated),-8.83
15,CC(NCc1cccnc1)c1cc2c(cc1Br)OCCO2 (configuration not stated),-6.12
16,CC(C)(C)c1nc(CN(Cc2ccccc2F)C2CCCCC2)no1,-8.5
17,CCC(Nc1nnnn1-c1ccccc1)C(=O)Nc1nc(C)cs1 (configuration not stated),-12.4
18,CCCN1CCCN(C(=O)c2ccc(Oc3cccnc3)cc2)CC1,-8.42
19,CCCc1ccc(S(=O)(=O)NC(=O)CCc2cscn2)cc1,4.19
20,O=C(c1ccoc1)N1CC[C@@H]2[C@@H](CC1)OCCN2c1cccnc1,-5.9
21,CO[C@H]1CCN(Cc2nccs2)C[C@@H]1Cc1ccccc1,-0.233
22,O=C1CCCN1CCN1CCCCC1Cn1cccn1 (configuration not stated),-10.6
23,COc1cc(C(=O)Nc2cn[nH]c2)ccc1C,-7

row,SMILES,cytotoxicity at 70.5 h [%]
1,CSCC[C@H](N)C(=O)NCc1cc2n(n1)CCCN(C(=O)C1CCC1)C2,-4.43
2,CCNC(=O)[C@@H]1C[C@H](N)CN1c1cc(C(F)(F)F)nc(N2CCCC2)n1,3.41
3,CCc1cnc2c(c1Nc1ccccc1OC)c(=O)n(C)c(=O)n2C,5.02
4,Cc1cccc(NC(=O)NC2CCN(C3CCOC3)CC2)c1 (configuration not stated),3.03
5,O=S(=O)(C1CC1)N1CCC2(COCc3cnc(N4CCOCC4)nc32)C1 (configuration not stated),4.94
6,Cc1cccc(NC(=O)c2csc(NCC(C)C)n2)n1,-14.8
7,O=C(Oc1ccccc1)N1CCC(CNS(=O)(=O)c2cccnc2)CC1,20.9
8,Cc1c(CN2CCCC2c2cncc(CN3CCCC3)n2)cnn1C (configuration not stated),1.84
9,NC1(c2nc(C(F)(F)F)cc(=O)[nH]2)CCCCC1,0.93
10,O=C(C1CCCN1c1ncnc2ccsc12)N1CCSCC1 (configuration not stated),-9.24
11,Cc1noc(-c2ccc(-n3ncc(C(=O)O)c3C)nc2)n1,-5.29
12,O=C(NCC(O)COc1ccccc1)Nc1nncs1 (configuration not stated),21.4
13,CN(C)S(=O)(=O)N1CCC(C(O)c2ccc(Cl)cc2)CC1 (configuration not stated),-10.4
14,CC(C)c1nccn1C1CCCN(C(=O)c2ccc3[nH]nnc3c2)C1 (configuration not stated),30.1
15,C[C@@H]1CN(C(=O)C2(Cn3cccn3)CC2)CC[C@@]1(O)C1CC1,26.3
16,COc1cccc(CC(=O)N2CCc3ncnc(NCCO)c3CC2)c1,-9.99
17,CN(Cc1cnn(-c2ccccc2)n1)C1CCCN(c2cccnn2)C1 (configuration not stated),-12.2
18,CCCn1nnnc1COC(=O)C1COc2ccc(Cl)cc2C1 (configuration not stated),-5.74
19,O=C(NCc1cnn2cccnc12)c1cccc(CC2CCNCC2)c1,5.06
20,CCn1cncc1C1CC(=O)Nc2c1c(C)nn2-c1ccc(C)cc1 (configuration not stated),1.51
21,O=C(c1cc(=O)[nH]c(=O)[nH]1)N1CCCCC1c1ccc(F)cc1 (configuration not stated),-6.94
22,CNC(=O)CCN(C)c1nc(-c2ccncc2)nc2c1CCNC2,-13.1
23,CN(C(=O)c1ccc2c(c1)nc(N1CC[C@H](O)C1)n2C)C1CCSCC1,24.9

row,SMILES,cytotoxicity at 70.5 h [%]
1,CCN(CCN1CCOCC1)C(=O)c1cccnc1,4.89
2,Cc1nc2c(c(C)c1CC(=O)NCc1ccc(F)cc1)c(=O)[nH]n2C,21.3
3,COCCN1C[C@@H](C)[C@@]2(COCCN(C(=O)Cc3ccccc3)C2)C1,-23
4,CCc1nnc2n1CCN(C(=O)c1ccc3[nH]nnc3c1)C2,-8.74
5,O=C(Nc1ccc(F)cc1-c1nc(C2CC2)no1)N1CC[C@@H](O)C1,-6.37
6,CCOc1ccc(CC(CNC(=O)c2sccc2C)C(N)=O)cc1 (configuration not stated),-1.61
7,Cn1cc(N2C(=O)CC[C@@H]3[C@H]2CCN3Cc2ccncc2)cn1,6.03
8,CCn1ccnc1CN1CCCC1c1noc(C2CC2)n1 (configuration not stated),-2.39
9,Cc1nccc(-c2cccc(NCc3nc(C(C)C)no3)c2)n1,-10.6
10,CC(C)C(NC(=O)NCc1cccnc1N(C)C)c1cccs1 (configuration not stated),-20.8
11,COc1cccc(OC)c1C(=O)N1CCN(c2ccccc2F)CC1,39
12,Cc1ccc(S(=O)(=O)N2C[C@@H]3CCN[C@@H]3C2)cc1,-4.81
13,CCN(CC)CC(=O)N1CCN(CCc2ccncc2)CC1,-9.33
14,Cc1cncc(NC(=O)c2ccc(CN3CC[C@H](O)C3)cc2)c1,19.1
15,Cc1cc(C)c2ncn(CCOCCO)c(=O)c2c1,-5.3
16,COc1ncccc1CN1C[C@H]2C[C@@H](C(=O)NCC3CC3)N(C)[C@H]2C1,-12.9
17,COc1cc2c(cc1CCC(=O)O)CCC2,17.1
18,O=C(O)CCCC(=O)Nc1cnn(COc2ccc(F)cc2Cl)c1,7.18
19,Cc1ccc(C(=O)N2C[C@@H]3CN(c4ncccn4)C[C@@H]3C2)cn1,-9.68
20,C1CCC(c2nnc3sc(C4CCOC4)nn23)C1 (configuration not stated),-13.4
21,Cn1ccnc1CN1CCCC1CCc1ccccc1 (configuration not stated),2.44
22,CN(C)C(=O)CN1CCCC(c2cncc(-c3cccc(Cl)c3)n2)C1 (configuration not stated),-1.23
23,CCn1cnnc1CNC(=O)N1CCN(CC(C)C)CC1,-1.52

row,SMILES,cytotoxicity at 70.5 h [%]
1,Cc1ncsc1CCC(=O)NCc1csc(N(C)C)n1,-1.1
2,COc1cccc(CNCCNS(=O)(=O)Cc2ccccc2)c1,-6.4
3,CCc1ccc(C(=O)N2CCC(O)(CN3CCOCC3)C(C)(C)C2)[nH]1 (configuration not stated),-9.84
4,CC(=O)Nc1nc(CN2CCCCC2Cn2cncn2)cs1 (configuration not stated),0.302
5,O=C(CCN1CCOC(Cn2cccn2)C1)NC1CCCCC1 (configuration not stated),-0.965
6,Nc1nccc(-c2c[nH]nc2C2CCCCC2)n1,47.1
7,Cn1nnnc1SC1CCCN(c2ccccc2Cl)C1=O (configuration not stated),-1.81
8,CC(=O)N1C[C@@H](c2ccsc2)[C@@H]2CN(Cc3cccc(Cl)c3)CC[C@@H]21,8.95
9,COCc1nc2cc(NCc3cc[nH]n3)ccc2o1,-2.44
10,Cc1nc(NC(=O)CN2CCc3c(nc(C(C)C)n3C)C2)sc1C,-7.61
11,Cc1ccc(N2CC[C@@H]3CN(Cc4cc[nH]n4)C[C@@H]3C2)nn1,-2.82
12,Cc1cccc(C(C)(C)CNC(=O)CN(C)c2cnccn2)c1,-2.49
13,CN(C(=O)NCCCN1CCCC1)C1CCN(c2ccccc2)C1=O (configuration not stated),4.81
14,CCn1nc(C)c2nc(C)nc(N(C)Cc3ccco3)c21,-21.8
15,Cc1ocnc1CNC(=O)Nc1ccc(N2CCOC(C)C2)cc1 (configuration not stated),-17.7
16,c1cnc(N2C[C@H]3CN(CC4CCOC4)C[C@H]3C2)nc1 (some centres not stated),-4.56
17,CCc1cc(CNC(=O)N2Cc3ccccc3N(C)CC2C)[nH]n1 (configuration not stated),-0.192
18,COCC(=O)Nc1cc(Br)cnc1OCC(F)(F)F,-11.8
19,CSCCC(=O)N1CCCC1c1nnc2n1CCCCC2 (configuration not stated),-3.4
20,Cc1cc(C2CCCN2C(=O)NCc2cccc(F)c2)on1 (configuration not stated),-8.57
21,CCn1c(C)nc2cc(NC(=O)C3CN(C(C)=O)C3)ccc21,-5.1
22,Cc1nc[nH]c1CN1C[C@@H]2OCCN(c3ncccn3)[C@@H]2C1,-10.6
23,CC(=O)N[C@@H]1CN(Cc2ccccc2-n2cccn2)C[C@H]1C(C)C,-4.08

row,SMILES,cytotoxicity at 70.5 h [%]
1,CC1=C(C(=O)NCc2cccnc2-n2cnc3ccccc32)OCCO1,-0.825
2,Cc1ccc(C(=O)N2CCN(C(=O)Cc3ccccn3)CC2)c(C)c1,-5.32
3,COCCN(Cc1nc2c(cnn2C)c(=O)[nH]1)C(C)COC (configuration not stated),-7.19
4,CCCc1nc(N2CCN(CC)CC2)c2c(n1)c(C)nn2CC,-5.26
5,CS(=O)(=O)N[C@@H]1CCN(Cc2ccncc2)[C@H]1Cc1cccnc1,-12.8
6,CC(C)CN1CCCn2nc(CNC(=O)NC(C)(C)C)cc2C1,-6.75
7,O=C1CCC2(CCN(Cc3ccsc3)CC2)N1Cc1ccccc1,-10.3
8,O=C(NCCCN1CCOCC1)c1ccc(-n2ccc3ccccc32)s1,-3.96
9,CCNC(=O)CCC(=O)N1CCC(Oc2cc(C)ccc2C)CC1,-19.2
10,CN(C)C(=O)C1CN(c2ccncn2)CCN(C2CCOCC2)C1 (configuration not stated),12.4
11,Cc1nc(C(C)NC(=O)COc2ccc(F)cc2)n[nH]1 (configuration not stated),-7.22
12,c1cc(-c2noc(-c3cc(C4CC4)[nH]n3)n2)cc(N2CCCCC2)n1,-0.746
13,CNc1ccnc(NCCC(=O)Nc2ccccc2C)n1,-4.65
14,CC/N=c1\nc(NCC)nc2n1C(O)(Nc1cccc(Cl)c1Cl)CS2 (configuration not stated),-1.29
15,Cc1cccc(S(=O)(=O)N2CSCC2C(=O)NC(C)(C)C)c1 (configuration not stated),-3.48
16,CCc1nccn1C1CCCN(C(=O)c2cnn(C)c2C2CC2)C1 (configuration not stated),-0.779
17,COc1cc(C2SCC(=O)Nc3[nH]ncc32)cc(OC)c1OC (configuration not stated),-5.35
18,Cc1ccc(CN2CCN(C(=O)c3ccccc3O)C(C)C2=O)cc1 (configuration not stated),-18.7
19,O=S(=O)(c1cn[nH]c1)N1CCC(O)(CN2CCOCC2)C1 (configuration not stated),4.95
20,O=C(c1cc2cccc(F)c2[nH]1)N1C[C@@H](O)[C@H](N2CCCC2)C1,-4.92
